In patent US20140249135A1, “PIM KINASE INHIBITORS AND METHODS OF THEIR USE” (NOVARTIS AG, priority 2007, published 2014):
Read-outs that look alike come from different tables or passages of the source.

Columns and labels:
Pim2 kinase = Pim2 kinase (Homo sapiens, UniProt Q9P1W9); assay: Pim2 ATP depletion assay; assay type: biochemical;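 further: Luciferase-based luminescent readout of ATP remaining after PIM2 phosphorylates a BAD peptide, final 5 nM enzyme, 4 µM ATP, 10 µM peptide, 2.5% DMSO, run to roughly half ATP consumption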
Sequence of Pim2 kinase (Q9P1W9 whole entry): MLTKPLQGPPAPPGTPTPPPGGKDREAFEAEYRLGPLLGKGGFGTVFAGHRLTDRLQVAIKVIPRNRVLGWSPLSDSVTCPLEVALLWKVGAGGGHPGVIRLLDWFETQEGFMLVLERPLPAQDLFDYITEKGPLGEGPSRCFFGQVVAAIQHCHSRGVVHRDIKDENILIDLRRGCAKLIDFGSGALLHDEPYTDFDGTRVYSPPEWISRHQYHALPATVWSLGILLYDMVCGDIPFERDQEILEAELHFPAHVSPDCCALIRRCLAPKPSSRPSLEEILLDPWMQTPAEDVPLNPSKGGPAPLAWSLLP

Pim1 kinase = Pim1 kinase (Homo sapiens, UniProt P11309); assay: Pim1 ATP depletion assay; assay type: biochemical;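 further: Luciferase-luciferin luminescence readout of residual ATP after PIM1 transfers phosphate to a peptide substrate, 40 µM ATP added, reaction run to roughly half ATP consumption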
Sequence of Pim1 kinase (P11309 whole entry): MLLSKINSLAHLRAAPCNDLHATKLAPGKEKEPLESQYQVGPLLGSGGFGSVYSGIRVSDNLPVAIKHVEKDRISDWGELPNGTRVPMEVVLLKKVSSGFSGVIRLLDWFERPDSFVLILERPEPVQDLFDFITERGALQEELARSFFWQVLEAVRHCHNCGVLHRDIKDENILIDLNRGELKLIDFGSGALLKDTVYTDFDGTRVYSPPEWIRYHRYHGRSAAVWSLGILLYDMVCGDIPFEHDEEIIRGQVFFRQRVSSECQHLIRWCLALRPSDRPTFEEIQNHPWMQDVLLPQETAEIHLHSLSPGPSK

[1] = system: MM1.s (human myeloma cell line); assay: Cell proliferation assay (CellTiter-Glo), MM1.s; assay type: cell-based; details: MM1.s cells
Method: (§1) KMS 11 (human myeloma cell line), were cultured in IMDM supplemented with 10% FBS, sodium pyruvate and antibiotics. Cells were plated in the same medium at a density of 2000 cells per well into 96 well tissue culture plates, with outside wells vacant, on the day of assay. MM1.s (human myeloma cell line), were cultured in RPMI1640 supplemented with 10% FBS, sodium pyruvate and antibiotics. Cells were plated in the same medium at a density of 5000 cells per well into 96 well tissue culture plates, with outside wells vacant, on the day of assay.
(§2) Test compounds supplied in DMSO were diluted into DMSO at 500 times the desired final concentrations before dilution into culture media to 2 times final concentrations. Equal volumes of 2× compounds were added to the cells in 96 well plates and incubated at 37° C. for 3 days.
(§3) After 3 days plates were equilibrated to room temperature and equal volume of CellTiter-Glow Reagent (Promega) was added to the culture wells. The plates were agitated briefly and luminescent signal was measured with luminometer. The percent inhibition of the signal seen in cells treated with DMSO alone vs. cells treated with control compound was calculated and used to determine EC50 values (i.e., the concentration of a test compound that is required to obtain 50% of the maximum effect in the cells) for tested compounds, as shown in Example 763.

Pim3 kinase = Pim3 kinase (Homo sapiens, UniProt Q86V86); assay: Pim3 ATP depletion assay; assay type: biochemical
KDR kinase = KDR kinase (Homo sapiens, UniProt P35968); assay: KDR AlphaScreen assay; details: KDR IC50 (μM)
Sequence of KDR kinase (P35968 20-1356): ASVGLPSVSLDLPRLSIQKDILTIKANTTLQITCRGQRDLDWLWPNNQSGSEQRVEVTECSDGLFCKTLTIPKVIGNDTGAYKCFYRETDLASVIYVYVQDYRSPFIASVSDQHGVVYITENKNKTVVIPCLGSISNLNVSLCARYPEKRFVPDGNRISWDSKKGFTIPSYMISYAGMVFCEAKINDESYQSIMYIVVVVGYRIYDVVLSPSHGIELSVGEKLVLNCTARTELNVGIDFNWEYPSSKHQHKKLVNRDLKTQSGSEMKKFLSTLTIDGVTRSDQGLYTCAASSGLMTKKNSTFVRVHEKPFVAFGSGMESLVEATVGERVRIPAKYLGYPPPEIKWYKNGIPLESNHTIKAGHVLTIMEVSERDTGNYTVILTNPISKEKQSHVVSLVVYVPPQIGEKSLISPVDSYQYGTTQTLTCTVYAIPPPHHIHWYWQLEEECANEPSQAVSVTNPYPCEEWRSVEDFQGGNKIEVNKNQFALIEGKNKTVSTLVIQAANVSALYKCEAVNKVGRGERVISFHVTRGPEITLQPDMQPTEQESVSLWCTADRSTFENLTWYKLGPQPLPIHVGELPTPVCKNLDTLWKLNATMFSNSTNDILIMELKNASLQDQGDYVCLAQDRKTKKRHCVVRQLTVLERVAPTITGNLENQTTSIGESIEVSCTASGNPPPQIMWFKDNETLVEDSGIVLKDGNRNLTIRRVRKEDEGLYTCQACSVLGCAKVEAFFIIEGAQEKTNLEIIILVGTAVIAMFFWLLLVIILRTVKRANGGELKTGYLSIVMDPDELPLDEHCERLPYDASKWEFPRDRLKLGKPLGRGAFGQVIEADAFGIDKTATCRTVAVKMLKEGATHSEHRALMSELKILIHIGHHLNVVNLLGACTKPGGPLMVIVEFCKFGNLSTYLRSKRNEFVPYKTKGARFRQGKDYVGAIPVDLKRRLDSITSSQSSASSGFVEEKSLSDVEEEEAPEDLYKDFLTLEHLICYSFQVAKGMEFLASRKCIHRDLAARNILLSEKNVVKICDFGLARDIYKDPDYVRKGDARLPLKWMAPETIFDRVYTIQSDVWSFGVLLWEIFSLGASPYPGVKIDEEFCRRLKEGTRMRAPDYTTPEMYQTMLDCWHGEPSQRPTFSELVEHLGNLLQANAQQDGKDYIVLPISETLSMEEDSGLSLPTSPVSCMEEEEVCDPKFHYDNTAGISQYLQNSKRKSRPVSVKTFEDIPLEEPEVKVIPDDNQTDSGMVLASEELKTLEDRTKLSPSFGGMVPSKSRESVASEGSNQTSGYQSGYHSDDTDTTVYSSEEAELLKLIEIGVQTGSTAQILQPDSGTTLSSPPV

[2] = system: KMS 11 (human myeloma cell line); assay: Cell proliferation assay (CellTiter-Glo), KMS 11; assay type: cell-based; details: KMS11 cells
Method: as §1, §2, §3

MV4-11 cells = assay: Cell proliferation assay (CellTiter-Glo), MV4-11; assay type: cell-based; details: Homo sapiens
Method: HEL 92.1.7 cells (ATTC No. TIB-180, an erythroleukemia line derived from malignant peripheral blood), MV4-11 cells (ATCC No. CRL-9591, a human acute monocytic leukemia line) and PC3 cells (ATCC No. CRL-1435, a human prostatic adenocarcinoma line) were cultured in RPMI1640 supplemented with 10% FBS, sodium pyruvate and antibiotics. Cells were plated in the same medium at a density of 1000 cells per well into 96 well tissue culture plates, with outside wells vacant, on the day of assay. Test compounds supplied in DMSO were diluted into DMSO at 500 times the desired final concentrations before dilution into culture media to 2 times final concentrations. Equal volumes of 2× compounds were added to the cells in 96 well plates and incubated at 37° C. for 3 days. After 3 days plates were equilibrated to room temperature and equal volume of CellTiter-Glow Reagent (Promega) was added to the culture wells. The plates were agitated briefly and luminescent signal was measured with luminometer.

HEL 92.1.7 cells = assay: Cell proliferation assay (CellTiter-Glo), HEL 92.1.7; assay type: cell-based; details: Homo sapiens, read-out: EC50 (μM) HEL 92.1.7
How it was run: (§4)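 Cells in RPMI1640 with 10% FBS were seeded at 1000 cells/well and exposed to compound dilutions from DMSO stocks for 3 days at 37 °C. Viability was read by CellTiter-Glo luminescence. EC50 was derived from percent inhibition relative to DMSO-only and control-compound wells.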

[3] = target: T1, human full length PKCE enzyme (Homo sapiens, UniProt Q02156); assay: In vitro PKCE assay; assay type: biochemical; details: 10 nM enzyme, 40 uM peptide substrate, 20 uM ATP, KinaseGlo Plus readout; read-out: PKCε IC50
T1 construct: human full length PKCE enzyme purchased from InVitrogen; purchased InVitrogen
T1 sequence (Q02156 1-737): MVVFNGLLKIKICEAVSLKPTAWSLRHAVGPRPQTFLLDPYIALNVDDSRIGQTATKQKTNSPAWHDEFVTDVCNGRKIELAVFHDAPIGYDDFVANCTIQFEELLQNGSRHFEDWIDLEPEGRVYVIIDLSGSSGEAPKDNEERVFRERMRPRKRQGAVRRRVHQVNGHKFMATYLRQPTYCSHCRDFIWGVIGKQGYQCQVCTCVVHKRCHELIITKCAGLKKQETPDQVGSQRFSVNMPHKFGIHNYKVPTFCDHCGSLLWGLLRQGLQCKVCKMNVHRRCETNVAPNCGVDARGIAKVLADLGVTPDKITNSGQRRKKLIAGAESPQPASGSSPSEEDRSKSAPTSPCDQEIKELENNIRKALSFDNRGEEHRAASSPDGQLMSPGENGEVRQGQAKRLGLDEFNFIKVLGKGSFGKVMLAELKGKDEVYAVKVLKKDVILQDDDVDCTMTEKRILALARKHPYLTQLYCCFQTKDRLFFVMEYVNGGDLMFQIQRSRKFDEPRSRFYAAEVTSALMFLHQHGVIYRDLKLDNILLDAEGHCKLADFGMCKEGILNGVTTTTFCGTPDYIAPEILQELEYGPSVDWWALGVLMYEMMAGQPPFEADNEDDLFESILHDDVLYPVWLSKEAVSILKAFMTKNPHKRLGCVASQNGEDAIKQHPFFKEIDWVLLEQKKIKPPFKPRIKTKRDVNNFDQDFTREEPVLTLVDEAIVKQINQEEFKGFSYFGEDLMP

PC3 cells = assay: Cell proliferation assay (CellTiter-Glo), PC3; assay type: cell-based; details: Homo sapiens, PC-3
How it was run: as §4

[4] = Pim1 ATP depletion assay, read-out: IC50 (μM) PIM1
[5] = cell proliferation, MV4-11 cells, read-out: EC50 (μM) MV-4-11

Structure (SMILES)	IC50 (Pim2 kinase; read-out: IC50 (μM) PIM2) [µM]	IC50 (Pim1 kinase; [4]) [µM]	EC50 ([1]; read-out: EC50 (μM) MM1.s) [µM]	IC50 (Pim3 kinase; read-out: IC50 (μM) PIM3) [µM]	IC50 (KDR kinase) [µM]	EC50 ([2]; read-out: EC50 (μM) KMS11) [µM]	EC50 (MV4-11 cells; [5]) [µM]	IC50 [3] [nM]	EC50 (PC3 cells) [µM]	EC50 (HEL 92.1.7 cells) [µM]	EC50 (MV4-11 cells; MV4-11, read-out: EC50 (μM) MV-4-11) [µM]	IC50 (Pim2 kinase; read-out: PIM2 IC50) [µM]	IC50 (Pim1 kinase) [µM]	EC50 ([1]; read-out: MM1.s EC50) [µM]	IC50 (Pim3 kinase; read-out: PIM3 IC50) [µM]	EC50 ([2]; read-out: KMS11 EC50) [µM]
COCCOc1nc(-c2ccc(N)c(C(=O)Nc3cnccc3N3CCC[C@H](N)C3)n2)cnc1N [Example 520, 3-Amino-6-[5-amino-6-(2-methoxy-ethoxy)-pyrazin-2-yl]-pyridine-2-carboxylic acid (3-amino-3,4,5,6-tetrahydro-2H-[1,4′]bipyridinyl-3′-yl)-amide]	< 1	< 1	5 to 10	< 1	1 to 10	5 to 10	–	–	–	–	–	–	–	–	–	–
Nc1nccnc1C(=O)Nc1cnccc1N1CCCC(N)C1 (stereo not drawn) [Example 187, 3-amino-N-[4-(3-aminopiperidin-1-yl)pyridin-3-yl]pyrazine-2-carboxamide]	< 1	–	–	< 1	> 25	–	–	< 1000	1 to 5	1 to 5	< 1	–	–	–	–	–
Nc1ccc(-c2c(F)cccc2F)nc1C(=O)Nc1cnccc1N1CCC[C@H](N)C1 [Example 425, 3-amino-6-(2,6-difluoro-phenyl)-pyridine-2-carboxylic acid ((S)-3-amino-3,4,5,6-tetrahydro-2H-[1,4′]bipyridinyl-3′-yl)-amide]	< 1	< 1	< 1	< 1	10 to 25	< 1	–	1000 to 10000	5 to 10	< 1	–	–	–	–	–	–
Nc1ccc(-c2c(F)cccc2F)nc1C(=O)Nc1cnccc1N1CC[C@H](O)[C@H](N)C1 [Example 754, 3-Amino-6-(2,6-difluoro-phenyl)-pyridine-2-carboxylic acid (3-amino-4-hydroxy-3,4,5,6-tetra-hydro-2H-[1,4′]bipyridinyl-3′-yl)-amide]	–	–	–	–	–	–	–	–	–	–	–	< 1	< 1	1 to 5	< 1	< 1

Now from value to compound, other results behind:

IC50 (Pim2 kinase; read-out: IC50 (μM) PIM2) [µM]	IC50 (Pim1 kinase; [4]) [µM]	EC50 ([1]; read-out: EC50 (μM) MM1.s) [µM]	IC50 (Pim3 kinase; read-out: IC50 (μM) PIM3) [µM]	IC50 (KDR kinase) [µM]	EC50 ([2]; read-out: EC50 (μM) KMS11) [µM]	EC50 (MV4-11 cells; [5]) [µM]	IC50 [3] [nM]	EC50 (PC3 cells) [µM]	Structure (SMILES)	EC50 (HEL 92.1.7 cells) [µM]	EC50 (MV4-11 cells; MV4-11, read-out: EC50 (μM) MV-4-11) [µM]	IC50 (Pim2 kinase; read-out: PIM2 IC50) [µM]	IC50 (Pim1 kinase) [µM]	EC50 ([1]; read-out: MM1.s EC50) [µM]	IC50 (Pim3 kinase; read-out: PIM3 IC50) [µM]	EC50 ([2]; read-out: KMS11 EC50) [µM]
< 1	< 1	5 to 10	< 1	10 to 25	1 to 5	–	–	–	N[C@H]1CCCN(c2ccncc2NC(=O)c2cccc(-c3c(F)cccc3F)n2)C1 [Example 454, 6-(2,6-Difluoro-phenyl)-pyridine-2-carboxylic acid (3-amino-3,4,5,6-tetrahydro-2H-[1,4′]bi-pyridinyl-3′-yl)-amide]	–	–	–	–	–	–	–
< 1	< 1	–	< 1	10 to 25	–	< 1	1000 to 10000	–	Nc1ccc(-c2ccccc2Cl)nc1C(=O)Nc1cnccc1N1CCC[C@H](N)C1 [Example 433, 3-amino-6-(2-chloro-phenyl)-pyridine-2-carboxylic acid ((S)-3-amino-3,4,5,6-tetrahydro-2H-[1,4′]bipyridinyl-3′-yl)-amide]	1 to 5	–	–	–	–	–	–
< 1	< 1	< 1	< 1	–	< 1	–	–	–	CN(C)C(=O)c1ccc(F)c(-c2ccc(N)c(C(=O)Nc3cnccc3N3CCC[C@H](N)C3)n2)c1 [Example 328, 3-amino-6-(5-dimethyl-carbamoyl-2-fluoro-phenyl)-pyridine-2-carboxylic acid ((S)-3-amino-3,4,5,6-tetra-hydro-2H-[1,4′]bipyridinyl-3′-yl)-amide]	1 to 5	–	–	–	–	–	–
–	–	–	–	–	–	< 1	–	–	Nc1ccc(-c2ccccc2F)nc1C(=O)Nc1cnccc1N1CCC[C@H](N)C1 [Example 434, 3-amino-6-(2-fluoro-phenyl)-pyridine-2-carboxylic acid ((S)-3-amino-3,4,5,6-tetrahydro-2H-[1,4′]bipyridinyl-3′-yl)-amide]	1 to 5	–	–	–	–	–	–
< 1	< 1	< 1	< 1	–	1 to 5	–	–	> 10	CC(C)NC(=O)c1ccc(F)c(-c2ccc(N)c(C(=O)Nc3cnccc3N3CCC[C@H](N)C3)n2)c1 [Example 317, 3-amino-6-(2-fluoro-5-iso-propylcarbamoyl-phenyl)-pyridine-2-carboxylic acid ((S)-3-amino-3,4,5,6-tetra-hydro-2H-[1,4′]bipyridinyl-3′-yl)-amide]	1 to 5	–	–	–	–	–	–
< 1	< 1	< 1	< 1	–	< 1	–	–	–	CO[C@@H]1C[C@H](N)CN(c2ccncc2NC(=O)c2nc(-c3c(F)cccc3F)ccc2N)C1 [Example 300, 3-Amino-6-(2,6-difluoro-phenyl)-pyridine-2-carboxylic acid (3-amino-5-methoxy-3,4,5,6-tetrahydro-2H-[1,4′]bi-pyridinyl-3′-yl)-amide]	–	–	–	–	–	–	–
